Assay results as given in paper PMC10660337, “Mutate and Conjugate: A Method to Enable Rapid In-Cell Target Validation” (ACS Chemical Biology, 2023).

How the values were obtained:
[1] = test system: BRD4(1,2)^L94C transiently expressed in HEK293T cells; experiment: In-cell labeling of tandem bromodomain; format: cell-based, human
Method: (§1) reaction mix was taken and 8 µL of Lamelli buffer added, and the samples denatured by heating at 95 °C for 10 min. Samples were separated by gel electrophoresis on NuPAGE™ 4–12%, Bis-Tris precast polyacrylamide gels (Thermofisher). Following electrophoresis, gels were stained for 15 min with InstantBlueTM Coomasie® stain (Abcam), destained, and imaged using Bio-rad molecular imager.
(§2) Bio-rad Image Lab 6.1 was used to process the data.
(§3) In-cell target engagement
(§4) In-cell labeling by clickable probes
(§5) Transfected HEK293T cells at ~90% confluency were incubated for 1 h with a DMSO control (0.5% DMSO final concentration) or a click probe (10 µM, 0.5% DMSO final concentration) diluted in Opti- […]
(§6) Cells were then harvested and lysed using the previously described protocol above. The resulting cell lysates were diluted to 2 mg/mL using the previously described protocol above. […]
(§7) Gels were imaged for fluorescence using Bio-rad molecular imager and then stained for 15 min with InstantBlueTM Coomasie® stain (Abcam), destained, and imaged using Bio-rad molecular imager. […]
(§8) Transfected HEK293T cells at ~90% confluency were incubated for 30 min with a DMSO control or varying concentrations of OXFBD04 diluted in Opti-MEM media. […] Cells were then harvested, processed, and analysed using the previously described protocol above. […]

[2] = target: BRD4(1,2)^WT transiently expressed in HEK293T cells (Homo sapiens, UniProt O60885); experiment: In-cell labeling of tandem bromodomain; format: cell-based
Method: as §1, §2, §3, §4, §5, §6, §7, §8

[3] = test system: T1, BRD4(1)^WT transiently expressed in HEK293T cells; experiment: In-cell labeling by clickable probes, in-gel fluorescence; format: cell-based, human; conditions: 10 μM probe, 1 h
T1 construct: the first bromodomain of BRD4 [BRD4(1)]; StrepII; expressed in transfected cells; host or cells: HEK293T
Method: To evaluate proteome-wide selectivity of the clickable probes, HEK293T cells transiently expressing BRD4(1)^L94C or BRD4(1)^WT were incubated with 10 μM of probes 28–30 and 42 for 1 h before the cells were lysed and the CuAAC reaction with TAMRA-PEG3-azide was conducted (Figure 7A). […]
as §1, §2, §3, §4, §5
Cells were then harvested and lysed using the previously described protocol above. The resulting cell lysates were diluted to 2 mg/mL using the previously described protocol above.
Cell lysates (50 µL) were then incubated with TAMRA-PEG3-Azide (200 µM), TCEP·HCl (2 mM), TBTA (200 µM), and CuSO4 (2 mM), for 1 h at rt in the dark. Samples were then prepared and separated by gel electrophoresis using the previously described protocol above.
Gels were imaged for fluorescence using Bio-rad molecular imager and then stained for 15 min with InstantBlueTM Coomasie® stain (Abcam), destained, and imaged using Bio-rad molecular imager.
Typically, the very bottom of the gel was removed prior to imaging due to residual, unreacted, TAMRA-PEG3-Azide, which would cause oversaturation and poor image quality. […]
MEM media. Cells were then harvested and lysed using the previously described protocol above. […]

[4] = target: T2, BRD4(1)^WT (Homo sapiens, UniProt O60885); experiment: Fluorescent labeling of purified protein (CuAAC with TAMRA-PEG3-azide, in-gel fluorescence); format: binding; conditions: 50 μM probe, 10 μM protein, 4 h, 37 °C, then CuAAC 1 h
T2 construct: Characterization of His6-BRD4(1)WT; made in house; host or cells: E. coli BL21 (DE3)
Method: When 28, 29, 30, and 42 were incubated with either purified BRD4(1)^L94C or BRD4(1)^WT and subjected to a copper(I)-catalyzed alkyne–azide click reaction (CuAAC) reaction with the fluorescent TAMRA-PEG3-azide dye, all clickable probes labeled the mutant protein and could be visualized using fluorescence imaging of a gel (Figure 6).
Figure 6 Clickable probes 28, 29, 30, and 42 covalently label BRD4(1)^L94C and undergo a subsequent CuAAC reaction with TAMRA-PEG3 azide to fluorescently label the protein, as shown by in-gel fluorescence imaging. Compounds 28, 29, 30, 41, and 42 (50 μM) were incubated with purified BRD4(1)^L94C or BRD4(1)^WT (10 μM) for 4 h at 37 °C, followed by CuAAC reaction with TAMRA-PEG3 azide for 1 h and separation of components by SDS-PAGE. For all compounds other than 30, only labeling of BRD4(1)^L94C was observed.
50 mM DMSO stock solutions of the compounds were serially diluted, and dispensed into wells (5 μL).
The protein-peptide mixes (7 μL) for each combination were prepared following the specified final assay concentration (Table S19), and dispensed into wells. […]
Assays were performed in 1.5 mL Eppendorf tubes at room temperature, in the dark, and gently shaken, unless otherwise stated. […] Data was analysed and processed using MassLynx. […]
Gels were imaged for fluorescence using Bio-rad molecular imager and then stained for 15 min with […]

| In-cell covalent engagement with BRD4(1,2)^WT [2] | Labeling of purified BRD4(1)^WT, in-gel fluorescence [4] | Structure (SMILES) | In-cell labeling of BRD4(1,2)^L94C (fluorescent band ∼80 kDa) [1] | In-cell labeling of BRD4(1)^WT (fluorescent band ∼49 kDa) [3] |
| --- | --- | --- | --- | --- |
| no covalent engagement | – | C#CCOc1cc(NC(=O)C=C)ccc1N1CCCC1=O [Compound 42] | selectively label | – |
| – | low level | C#CCOc1ccc(-c2c(C)noc2NC(=O)C=C)cc1 [Compound 30] | – | not visible |
